Experimental data as given in patent publication US10227331B2 (priority 2015, dated 2019).
Like-named read-outs stand apart in the source and are kept apart here.

How the values were obtained:
[1] = test system: Klebsiella pneumoniae expressing VIM-1 (IHMA599644); assay type: cell-based; settings: VIM-1 (IHMA599644), with imipenem 1 μg/ml, 95% inhibition of bacterial growth
In short: (§1)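 Clinical strains grown overnight on blood agar, then diluted 1:100 in 1.1× CAMHB and exposed to test compound with imipenem at 1 μg/ml. Incubation was 22–24 h at 35° C; growth was read by absorbance to find the compound concentration restoring imipenem susceptibility.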

[2] = test system: Escherichia coli expressing NDM-1 (CLB30005, CLB30016); assay type: cell-based; settings: NDM-1 (CLB30016), with imipenem 1 μg/ml, 95% inhibition of bacterial growth
In short: as §1

[3] = test system: Serratia marcescens expressing IMP-1 (CL5741); assay type: cell-based; settings: IMP-1 (CL5741), with imipenem 1 μg/ml, 95% inhibition of bacterial growth
In short: as §1

[4] = test system: P. aeruginosa expressing IMP-1, efflux+ (MB9798); assay type: cell-based, Pseudomonas aeruginosa; settings: for P. aeruginosa expressing IMP-1, efflux+ (MB9798) MITC95: imipenem at 2 μg/mL, in the presence of a class A, C, D serine β-lactamase inhibitor closely related to relebactam; for Efflux ratio: ratio MITC95 PA_9798/MITC95 PA_9799
Excerpt: (§2) The strain background is Pseudomonas aeruginosa PAO1.

VIM-1 = VIM-1 (Pseudomonas aeruginosa (strain ATCC 15692 / DSM 22644 / CIP 104116 / JCM 14847 / LMG 12228 / 1C / PRS 101 / PAO1), UniProt A0A0F7KYQ8); assay: biochemical; settings: CCF2-FA substrate, 2 hours at 25° C
In short: (§3)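 Test compound, enzyme and the FRET cephalosporin substrate CCF2-FA are incubated together for 2 hours at 25° C. Cleavage is followed by fluorescence, and IC50 values are derived from semi-logarithmic inhibition curves fitted with a 4-parameter model.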

NDM-1 = NDM-1 (Klebsiella pneumoniae, UniProt C7C422); assay: biochemical; assay type: biochemical; settings: CCF2-FA substrate, 2 hours at 25° C; read-out: NDM-1 IC50
In short: as §3

IMP-1 = IMP-1 (Serratia marcescens, UniProt P52699); assay: biochemical; assay type: biochemical
In short: as §3

[5] = test system: P. aeruginosa expressing IMP-1, efflux− (MB9799); assay: Efflux: concentration of MBL inhibitor which restores susceptibility to imipenem; assay type: cell-based, Pseudomonas aeruginosa; settings: imipenem at 2 μg/mL, in the presence of a class A, C, D serine β-lactamase inhibitor closely related to relebactam
Excerpt: as §2

[6] = CCF2-FA substrate, 2 hours at 25° C, read-out: IMP-1 IC50

Sequence of IMP-1 (P52699 whole entry, looked up, species assumed): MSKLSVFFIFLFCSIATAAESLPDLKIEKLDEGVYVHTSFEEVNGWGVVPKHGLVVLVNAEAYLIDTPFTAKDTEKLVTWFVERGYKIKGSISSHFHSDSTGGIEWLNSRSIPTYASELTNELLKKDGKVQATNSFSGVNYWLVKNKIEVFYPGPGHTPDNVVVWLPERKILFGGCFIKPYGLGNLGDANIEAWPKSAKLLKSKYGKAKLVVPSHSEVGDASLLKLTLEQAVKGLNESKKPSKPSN
Sequence of NDM-1 (C7C422 whole entry, looked up, species assumed): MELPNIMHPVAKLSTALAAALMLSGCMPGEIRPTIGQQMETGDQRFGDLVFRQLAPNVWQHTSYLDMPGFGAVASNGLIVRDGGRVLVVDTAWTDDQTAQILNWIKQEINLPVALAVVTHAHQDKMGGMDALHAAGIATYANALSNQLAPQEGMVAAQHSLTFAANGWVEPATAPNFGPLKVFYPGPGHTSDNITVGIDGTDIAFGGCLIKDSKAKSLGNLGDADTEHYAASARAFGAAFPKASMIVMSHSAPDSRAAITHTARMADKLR

Row | Structure (SMILES) | Klebsiella pneumoniae MITC95 [1] [µM] | Escherichia coli MITC95 [2] [µM] | Serratia marcescens MITC95 [3] [µM] | P. aeruginosa expressing IMP-1, efflux+ (MB9798) MITC95 [4] [µM] | Efflux ratio [4] | IC50 (VIM-1) [nM] | IC50 (NDM-1) [nM] | IC50 (IMP-1; [6]) [nM] | P. aeruginosa expressing IMP-1, efflux− (MB9799) MITC95 [5] [µM] | IC50 (IMP-1) [nM]
1 | NS(=O)(=O)c1c(S(=O)(=O)C2CNC2)ccc(-c2cccc3[nH]c(C(=O)NCC(=O)O)nc23)c1-c1nn[nH]n1 [Example 257, (4-(4-(azetidin-3-yl sulfonyl)-3-sulfamoyl-2-(2H-tetrazol-5-yl)phenyl)-1H-benzo[d]imidazole-2-carbonyl)glycine] | 50 | 25 | 25 | 25 | 2.00 | 0.428 | 0.123 | 1.2 | 12.5 | 
2 | Nc1nc2c(-c3ccc(S(=O)(=O)CCN4CCOCC4)c(S(N)(=O)=O)c3-c3nn[nH]n3)cccc2s1 [Example 258, 3-(2-Aminobenzo[d]thiazol-4-yl)-6-((2-morpholinoethyl)sulfonyl)-2-(2H-tetrazol-5-yl)benzenesulfonamide] | 25 | 25 | 12.5 | 12.5 | 2.00 | 0.454 | 0.228 |  | 6.25 | 0.469
3 | Nc1nc2c(-c3ccc(S(=O)(=O)CCN4CCOCC4=O)c(S(N)(=O)=O)c3-c3nn[nH]n3)cccc2s1 [Example 259, 3-(2-aminobenzo[d]thiazol-4-yl)-6-((2-(3-oxomorpholino)ethyl)sulfonyl)-2-(2H-tetrazol-5-yl)benzenesulfonamide] | 25 | 25 | 12.5 | 12.5 | 2.00 | 0.245 | 0.167 | 0.349 | 6.25 | 
4 | Nc1nc2cc(C(F)(F)F)cc(-c3ccc(S(=O)(=O)C4CNC4)c(S(N)(=O)=O)c3-c3nnn[nH]3)c2[nH]1 [Example 260, 3-(2-amino-5-(trifluoromethyl)-1H-benzo[d]imidazol-7-yl)-6-(azetidin-3-ylsulfonyl)-2-(1H-tetrazol-5-yl)benzenesulfonamide] | 12.5 | 6.25 | 6.25 | 6.25 | 1.00 | 0.813 | 0.598 | 1.99 | 6.25 | 
5 | N#Cc1cc(-c2ccc(S(=O)(=O)C3CNC3)c(S(N)(=O)=O)c2-c2nnn[nH]2)c2[nH]c(N)nc2c1 [Example 261, 3-(2-amino-5-cyano-1H-benzo[d]imidazol-7-yl)-6-(azetidin-3-ylsulfonyl)-2-(1H-tetrazol-5-yl) benzenesulfonamide] | 12.5 | 6.25 | 6.25 | 6.25 | 1.00 | 0.734 | 0.4 | 1.15 | 6.25 | 
6 | Nc1nc2cc(F)cc(-c3ccc(S(=O)(=O)C4CNC4)c(S(N)(=O)=O)c3-c3nnn[nH]3)c2[nH]1 [Example 262, 3-(2-amino-5-fluoro-1H-benzo[d]imidazol-7-yl)-6-(azetidin-3-ylsulfonyl)-2-(1H-tetrazol-5-yl) benzenesulfonamide] | 3.125 | 0.7813 | 1.563 | 0.7813 | 1.00 | 0.322 | 0.0803 | 0.506 | 0.7813 | 
7 | Nc1n[nH]c2cccc(-c3ccc(S(=O)(=O)C4CNC4)c(S(N)(=O)=O)c3-c3nnn[nH]3)c12 [Example 263, 3-(3-amino-1H-indazol-4-yl)-6-(azetidin-3-ylsulfonyl)-2-(1H-tetrazol-5-yl) benzenesulfonamide] | 6.25 | 1.563 | 1.563 | 6.25 | 2.00 | 0.594 | 0.431 | 4.59 | 3.125 | 
8 | Nc1n[nH]c2ccc(-c3ccc(S(=O)(=O)C4CNC4)c(S(N)(=O)=O)c3-c3nnn[nH]3)cc12 [Example 264, 3-(3-amino-1H-indazol-5-yl)-6-(azetidin-3-ylsulfonyl)-2-(1H-tetrazol-5-yl) benzenesulfonamide] | 3.125 | 3.125 | 1.563 | 6.25 | 8.00 | 0.175 | 0.364 | 1.82 | 0.7813 | 
9 | Cn1nc(N)c2c(-c3ccc(S(=O)(=O)C4CNC4)c(S(N)(=O)=O)c3-c3nnn[nH]3)cccc21 [Example 265, 3-(3-amino-1-methyl-1H-indazol-4-yl)-6-(azetidin-3-ylsulfonyl)-2-(1H-tetrazol-5-yl) benzenesulfonamide] | 6.25 | 3.125 | 1.563 | 6.25 | 4.00 | 0.239 | 0.168 | 1.49 | 1.563 | 
10 | Cn1nc(N)c2c(-c3ccc(S(=O)(=O)CCN)c(S(N)(=O)=O)c3-c3nnn[nH]3)cccc21 [Example 266, 3-(3-amino-1-methyl-1H-indazol-4-yl)-6-((2-aminoethyl)sulfonyl)-2-(1H-tetrazol-5-yl) benzenesulfonamide] | 6.25 | 6.25 | 3.125 | 6.25 | 2.00 | 0.232 | 0.198 | 0.643 | 3.125 | 
11 | C[C@@H](N)CS(=O)(=O)c1ccc(-c2cccc3[nH]c(N)nc23)c(-c2nn[nH]n2)c1S(N)(=O)=O [Example 267, 3-(2-amino-1H-benzo[d]imidazol-4-yl)-6-((R)-2-aminopropylsulfonyl)-2-(2H-tetrazol-5-yl)benzenesulfonamide] | 1.563 | 0.3906 | 0.7813 | 0.7813 | 1.00 | 0.517 | 0.213 | 0.964 | 0.7813 | 
12 | C[C@@H](N)CS(=O)(=O)c1ccc(-c2cccc3sc(N)nc23)c(-c2nn[nH]n2)c1S(N)(=O)=O [Example 268, 3-(2-aminobenzo[d]thiazol-4-yl)-6-((R)-2-aminopropylsulfonyl)-2-(2H-tetrazol-5-yl)benzenesulfonamide] | 3.125 | 1.563 | 1.563 | 1.563 | 1.00 | 0.329 | 0.177 | 0.363 | 1.563 | 
13 | CC(N)CS(=O)(=O)c1ccc(-c2cccc3sc(N)nc23)c(-c2nn[nH]n2)c1S(N)(=O)=O (stereo not drawn) [Example 269, 3-(2-aminobenzo[d]thiazol-4-yl)-6-(2-aminopropylsulfonyl)-2-(2H-tetrazol-5-yl)benzenesulfonamide] | 3.125 | 1.563 | 1.563 | 0.7813 | 1.00 | 0.176 | 0.116 | 0.152 | 0.7813 | 
14 | Cl.Cl.NCCCS(=O)(=O)c1ccc(-c2cccc3[nH]c(N)nc23)c(-c2nn[nH]n2)c1S(N)(=O)=O [Example 270, 3-(2-amino-1H-benzo[d]imidazol-4-yl)-6-(3-aminopropylsulfonyl)-2-(2H-tetrazol-5-yl)benzenesulfonamide dihydrochloride] | 0.8906 | 0.125 | 0.6406 | 0.4453 | 1.00 | 0.228 | 0.143 | 0.625 | 0.4453 | 
